“And” between values parts separate entries of the source, which are not always exact repeats. Equal entries are not always repeated.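 Cells were grown in 96-well plates and exposed to each compound for 48 hours at five concentrations; endpoints were interpolated linearly between bracketing concentrations, or set to the highest concentration if not reached. Here, GI50 denotes the concentration required for 50% inhibition of growth. TGI: concentration producing complete growth inhibition.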
What was measured:
Assay in all cases: NCI tumour cell line growth inhibition, 48 h
[1] = test system: 786-0 renal
[2] = test system: A498 renal
[3] = test system: A549 NSCLC
[4] = test system: ACHN renal
[5] = test system: BT-549 breast
[6] = test system: CAKI-1 renal
[7] = test system: CCRF-CEM leukemia
[8] = test system: COLO 205 colon
[9] = test system: DU-145 prostate
[10] = test system: EKVX NSCLC
[11] = test system: HCC-2998 colon
[12] = test system: HCT-116 colon
[13] = test system: HCT-15 colon
[14] = test system: HL-60(TB) leukemia
[15] = test system: HOP-62 NSCLC
[16] = test system: HOP-92 NSCLC
[17] = test system: HS 578T breast
[18] = test system: HT29 colon
[19] = test system: IGROV1 ovarian
[20] = test system: K-562 leukemia
[21] = test system: KM12 colon
[22] = test system: LOX IMVI melanoma
[23] = test system: M14 melanoma
[24] = test system: MALME-3M melanoma
[25] = test system: MCF7 breast
[26] = test system: MDA-MB-231 breast
[27] = test system: MOLT-4 leukemia
[28] = test system: NCI-H226 lung
[29] = test system: NCI-H23 lung
[30] = test system: NCI-H460 lung
[31] = test system: NCI/ADR-RES ovarian
[32] = test system: OVCAR-3 ovarian
[33] = test system: OVCAR-4 ovarian
[34] = test system: OVCAR-5 ovarian
[35] = test system: OVCAR-8 ovarian
[36] = test system: PC-3 prostate
[37] = test system: RPMI-8226 leukemia
[38] = test system: RXF 393 renal
[39] = test system: SF-268 CNS
[40] = test system: SF-295 CNS
[41] = test system: SF-539 CNS
[42] = test system: SK-MEL-28 melanoma
[43] = test system: SK-MEL-5 melanoma
[44] = test system: SK-OV-3 ovarian
[45] = test system: SN12C renal
[46] = test system: SNB-19 CNS
[47] = test system: SNB-75 CNS
[48] = test system: SR leukemia
[49] = test system: SW-620 colon
[50] = test system: T-47D breast
[51] = test system: TK-10 renal
[52] = test system: U251 CNS
[53] = test system: UACC-62 melanoma
[54] = test system: UO-31 renal
[55] = test system: MDA-MB-435
[56] = test system: NCI-H522 lung
[57] = test system: SK-MEL-2 melanoma
[58] = test system: UACC-257 melanoma

Compound COc1ccc2c(c1)NC(=O)CN2c1nc(NC2CC2)nc2ccccc12 has a GI50 [1] of 9.05 nM, a TGI [1] of 18600 nM and a GI50 [2] of 1.85 nM. The GI50 [3] was 1.28 nM, the TGI [3] was over 100000 nM and the TGI [4] was over 100000 nM. For the same compound, the GI50 [5] was 4.23 nM, the TGI [5] was 3110 nM and the TGI [6] was 17900 nM. It also gave a GI50 [7] of 0.385 nM, a TGI [7] of over 100000 nM and a GI50 [8] of 0.395 nM. The TGI [8] was 2.41 nM, the GI50 [9] was 0.452 nM and the TGI [9] was 2830 nM. It also gave a TGI [10] of 77500 nM, a GI50 [11] of 1.06 nM and a TGI [11] of 1420 nM. It also gave a GI50 [12] of 0.424 nM, a TGI [12] of 13300 nM and a GI50 [13] of 0.556 nM. The TGI [13] was over 100000 nM, the GI50 [14] was 0.503 nM and the TGI [14] was 3.13 nM. It also gave a GI50 [15] of 4.33 nM, a TGI [15] of 10500 nM and a GI50 [16] of 2660 nM. For the same compound, the TGI [16] was 17500 nM, the GI50 [17] was 3.59 nM and the TGI [17] was 25000 nM. It also gave a GI50 [18] of 0.347 nM, a TGI [19] of 6430 nM and a GI50 [20] of 0.336 nM. The TGI [20] was over 100000 nM, the GI50 [21] was 0.396 nM and the TGI [21] was over 100000 nM. For the same compound, the GI50 [22] was 0.901 nM, the TGI [22] was 55500 nM and the GI50 [23] was 0.367 nM. It also gave a TGI [23] of over 100000 nM, a GI50 [24] of 2010 nM and a TGI [24] of 84700 nM. The GI50 [25] was 0.386 nM, the TGI [25] was 14700 nM and the GI50 [26] was 0.858 nM. For the same compound, the TGI [26] was over 100000 nM, the GI50 [27] was 2.55 nM and the TGI [27] was over 100000 nM. The TGI [28] was over 100000 nM, the GI50 [29] was 1.12 nM and the TGI [29] was 16200 nM. For the same compound, the GI50 [30] was 0.405 nM, the TGI [30] was over 100000 nM and the GI50 [31] was 0.651 nM. For the same compound, the TGI [31] was 6.77 nM, the GI50 [32] was 0.368 nM and the TGI [32] was 11 nM. It also gave a TGI [33] of over 100000 nM, a TGI [34] of over 100000 nM and a GI50 [35] of 2.34 nM. For the same compound, the TGI [35] was 46900 nM, the GI50 [36] was 0.563 nM and the TGI [36] was over 100000 nM. The GI50 [37] was 1.82 nM, the TGI [37] was 16400 nM and the GI50 [38] was 1.78 nM. It also gave a GI50 [39] of 2.04 nM, a TGI [39] of 14400 nM and a GI50 [40] of 2.11 nM. The TGI [40] was 6.11 nM and 19.1 nM, the GI50 [41] was 2.32 nM and the TGI [41] was 8.04 nM. The GI50 [42] was 847 nM, the TGI [42] was over 100000 nM and the GI50 [43] was 0.552 nM. For the same compound, the GI50 [44] was 1.82 nM, the GI50 [45] was 4.91 nM and the TGI [45] was over 100000 nM. For the same compound, the GI50 [46] was 1.54 nM, the TGI [46] was 24500 nM and the GI50 [47] was 1.99 nM. The TGI [47] was 18700 nM, the GI50 [48] was 0.274 nM and the GI50 [49] was 0.383 nM. It also gave a TGI [49] of over 100000 nM, a GI50 [50] of 230 nM and a TGI [50] of 7130 nM. It also gave a TGI [51] of 14900 nM, a GI50 [52] of 1.06 nM and a TGI [52] of 18400 nM. For the same compound, the GI50 [53] was 0.876 nM, the TGI [53] was 13200 nM and the GI50 [54] was 31 nM. It also gave a TGI [54] of 10200 nM.
Work on Nc1ccc(C(=O)NN2C(=O)[C@H](Cl)C2c2ccc(Cl)cc2)cc1 (stereo not given in full) yielded a TGI [1] of 2600 nM, a GI50 [2] of 1620 nM and a TGI [2] of 3210 nM. It also gave a TGI [3] of 8490 nM, a TGI [4] of 2480 nM and a GI50 [5] of 1950 nM. For the same compound, the TGI [5] was 4900 nM, the TGI [6] was 2940 nM and the GI50 [7] was 310 nM. It also gave a TGI [7] of 1410 nM, a TGI [8] of 4140 nM and a TGI [9] of 4060 nM. The TGI [10] was 12800 nM, the TGI [11] was 3010 nM and the TGI [12] was 476 nM. It also gave a TGI [13] of 2790 nM, a TGI [15] of 3120 nM and a TGI [17] of 4020 nM. The TGI [18] was 610 nM, the TGI [19] was 4540 nM and the TGI [21] was 2990 nM. For the same compound, the GI50 [22] was 113 nM, the TGI [22] was 233 nM and the TGI [23] was 3110 nM. The TGI [24] was 4130 nM, the TGI [26] was 3550 nM and the TGI [55] was 4160 nM. For the same compound, the TGI [28] was 2650 nM, the TGI [29] was 2340 nM and the TGI [30] was over 100000 nM. For the same compound, the TGI [56] was over 100000 nM, the TGI [31] was 3830 nM and the TGI [32] was 2550 nM. The TGI [33] was over 100000 nM, the TGI [34] was 8230 nM and the TGI [35] was 3680 nM. It also gave a TGI [36] of 3200 nM, a TGI [37] of 5320 nM and a TGI [38] of over 100000 nM. It also gave a TGI [39] of 1920 nM, a TGI [40] of 9310 nM and a TGI [41] of 3600 nM. It also gave a TGI [57] of 4370 nM, a TGI [42] of 1800 nM and a TGI [43] of 4270 nM. It also gave a TGI [44] of 4270 nM, a TGI [45] of 2830 nM and a TGI [46] of 3690 nM. The TGI [47] was 797 nM, the TGI [49] was 4960 nM and the TGI [50] was 3880 nM. It also gave a TGI [51] of 2570 nM, a TGI [52] of 2260 nM and a TGI [58] of 3630 nM. It also gave a TGI [53] of 3690 nM and a TGI [54] of 4350 nM.
